Like-named read-outs stand apart in the source and are kept apart here.
Tests used:
MCF-7 = assay: Tumor cell proliferation (MTS), MCF-7; assay type: cell-based; conditions: Homo sapiens, MCF7; MCF-7, 72 hours; read-out: Gl50 µM in MCF-7
Method: (§1) Tumor cells were trypsinized and plated into 96-well plates at 3,000 per well and incubated in complete medium with 10% FBS for 24 hours. Compounds to be tested and vehicle control were added, and the final concentration of compound is in the range of 100 nmol/L to 100 µmol/L. The compounds were incubated for 72 hours in complete medium. The MTS reagent (Promega) was added according to the instruction, incubated for 2 hours at 37°C in CO2 incubator. Then absorbance at 490nm is read using an ELISA plate reader.

Bel-7402 = assay: Tumor cell proliferation (MTS), Bel-7402; assay type: cell-based; conditions: Homo sapiens; Bel-7402, 72 hours; read-out: Gl50 µM in Bel-7402
Method: as §1

human PDGFRβ = biological target: T1, human PDGFRβ (Homo sapiens, UniProt P09619); assay: PDGF dependent cell proliferation (MTS); assay type: cell-based
T1 construct: expressed in transfected cells
Method: NIH-3T3 mouse fibroblasts cell line engineered to stably express human PDGFRβ was constructed and used to evaluate PDGF dependent cell proliferation. PDGFRβ NIH-3T3 cells were plated into 96-well plates at 5,000 per well and incubated overnight with serum-free medium after 24 hours. Compounds to be tested and PDGF BB (50ng/ml) were added and incubated for 72 hours in serum-free medium. The effects on proliferation were determined by MTS method (Promega) according to the instruction. Incubation was performed for 2 hours at 37°C in CO2 incubator, and absorbance at 490nm was measured using an ELISA plate reader.

HCT-8 = assay: Tumor cell proliferation (MTS), HCT-8; assay type: cell-based; conditions: Homo sapiens; HCT-8, 72 hours; read-out: Gl50 µM in HCT-8
Method: as §1

Class I HDAC = assay: HDAC subtype selectivity reporter gene assay (P21 reporter, HeLa cells); assay type: cell-based; conditions: Homo sapiens, read-out: Class I HDAC (P21 reporter assay) Fold Induction at 10µM
Method: Different HDAC subtypes can bind with different transcriptional factors and involve in expression regulation of various genes. Suitable regulation elements for transcriptional factors are selected to construct reporter genes, which can be used to evaluate the selective inhibition of inhibors on HDAC subtypes. Briefly, HeLa cells were seeded in 96-well plates the day before transfection to give a confluence of 50-80% when transfection. Cells were transfected with one of reporter gene plasmid containing a p21-promoter sequence or response element upstream of a luciferase gene construct using FuGene6 transfection reagent according to the manufacturer's instruction (Roche). For normalizing the transfection efficiency, a GFP expression plasmid was cotransfected. After 24 hours compounds or the vehicle control (DMSO) were added. 24 hours later the cells were harvested and lysed, and the amount of the luciferase was evaluated using luciferase assay kits (Promega) according to the manufacturer's instructions.

A-498 = assay: Tumor cell proliferation (MTS), A-498; assay type: cell-based; conditions: Homo sapiens, A498; A-498, 72 hours; read-out: Gl50 µM in A-498
Method: as §1

total HDAC enzyme = assay: In vitro total HDAC enzyme activity (HDAC Fluorimetric Assay/Drug Discovery Kit, HeLa cell nuclear extract); assay type: biochemical
Method: The in vitro total HDAC enzyme activity was determined by HDAC Fluorimetric Assay/Drug Discovery Kit (BIOMOL) according to manufacture's instruction. The principle of the experiment is as follows: under the action of histone deacetylase (in the experiment, HeLa cell nuclear extract, which was rich in a variety of subtypes of HDAC, was used), an acetyl group is removed from a special substrate Fluor de Lys, thus the free amino is exposed. Upon Developer is added, the substrate will produce fluorescence. For the fluorescence, excitation wavelength is 360nm, and emission wavelength is 460nm. More fully the substrate deacetylated, more higher the fluorescence induced. In the absence of inhibitors, the fluorescence value is taken as the control; when inhibitor is existed, fluorescence value induced will be reduced, while in the case no enzyme is existed (corresponding to the completely inhibition of enzyme activity) the fluorescence value is blank. Generally, after suppression the fluorescence values will be between the control and blank. When analysis is made, blank will be used as 0, and the control will be used as 1. Smaller value means higher inhibitory activity. 1. Add Assay buffer, diluted trichostatin A and test inhibitor to appropriate wells of the microtiter plate. Following table lists the amounts used for each regent of various assay types.
2. Add diluted HeLa nucleoprotein extract to all wells except those that are marked as "blank". 3. Allow diluted Fluor de Lys™ Substrate and the samples in the microtiter plate to equilibrate to 25°C. 4. Initiate HDAC reactions by adding diluted substrate (25 µl) to each well and mixing thoroughly. 5. Allow reactions to proceed for 30 minutes and then stop them by addition of Fluor de Lys™ Developer (50 µl). Incubate plate at room temperature (25°C) for 10-15 min. 6. Read fluorescence of samples on a microtiter-plate reading fluorimeter at a excitation wavelength of 369 nm and a emitted wavelength of 451 nm.

A549 = assay: Tumor cell proliferation (MTS), A549; assay type: cell-based; conditions: Homo sapiens; A549, 72 hours; read-out: Gl50 µM in A549
Method: as §1

HUVEC cells = assay: VEGF dependent cell proliferation (MTS); assay type: cell-based; conditions: Homo sapiens, VEGF 165 (50ng/ml), 72 hours, serum-free medium, read-out: Gl50 nM (VEGF ligand-dependent cell proliferation)
Method: HUVEC cells were plated into 96-well plates at 6,000 per well and after 24 hours incubated with serum-free medium for 2 hours. Compounds to be tested and VEGF 165 (50ng/ml) were added and incubated for 72 hours in serum-free medium. The effects on cell proliferation were determined by MTS method (Promega) according to the instruction. Incubation was performed for 2 hours at 37°C in CO2 incubator, and absorbance at 490nm was determined using an ELISA plate reader.

human HCT-8 colon cancer = assay: Nude mice tumor transplanted from human HCT-8 colon cancer (Example 55); assay type: in vivo; conditions: for TGI (%): tumor growth inhibition
Method: Female nu/nu mice of 18∼20g were fed by normal diet for 3 days. Then the cultured HCT-8 human colon cancer cells were implanted into the armpit of 50 mice. […] One group was treated with vehicle. One group was treated with Sutent, the positive control drug. Two groups were treated with compound 33 at different concentrations. The other two groups were treated with compound 37 at different concentrations. Compound 33 was administered twice a day with an interval of 6 hours. For other groups, administration was performed once a day. Each group was dosed orally for 20 days. […] The tumor growth inhibition of each group was calculated using the following formula: {[(the average tumor weight of control group)-(the average tumor weight of test group)]/(the average tumor weight of control group)} × 100%. [formula] The experimental results are shown in Table 9 and Figure 5.

[1] = test system: human SSMC7721 liver cancer; assay: Nude mice tumor transplanted from human SSMC7721 liver cancer (Example 56); assay type: in vivo; conditions: for TGI (%): tumor growth inhibition
Method: Female nu/nu mice of 18∼20g were fed by normal diet for 3 days. Then the cultured SSMC7721 human liver cancer cells were implanted into the armpit of 50 mice. […] Each group had 8 mice. One group was treated with vehicle. One group was treated with Sutent, the positive control drug. Two groups were treated with compound 33 at different concentrations. The other two groups were treated with compound 37 at different concentrations. Each group was dosed orally once a day for 30 days. […] The tumor growth inhibition of each group was calculated using the following formula: {[(the average tumor weight of control group)-(the average tumor weight of test group)]/(the average tumor weight of control group)} × 100%. [formula] The experimental results are shown in Table 10 and Figure 6. Table10

[2] = PDGFRβ NIH-3T3 cells, PDGF BB (50ng/ml), 72 hours, serum-free medium; read-out: Gl50 nM (PDGF ligand-dependent cell proliferation)
[3] = 30 mg/kg orally once a day for 20 days
[4] = 60 mg/kg orally once a day for 20 days
[5] = 30 mg/kg orally once a day for 30 days
[6] = 60 mg/kg orally once a day for 30 days

T1 sequence (P09619 33-1106): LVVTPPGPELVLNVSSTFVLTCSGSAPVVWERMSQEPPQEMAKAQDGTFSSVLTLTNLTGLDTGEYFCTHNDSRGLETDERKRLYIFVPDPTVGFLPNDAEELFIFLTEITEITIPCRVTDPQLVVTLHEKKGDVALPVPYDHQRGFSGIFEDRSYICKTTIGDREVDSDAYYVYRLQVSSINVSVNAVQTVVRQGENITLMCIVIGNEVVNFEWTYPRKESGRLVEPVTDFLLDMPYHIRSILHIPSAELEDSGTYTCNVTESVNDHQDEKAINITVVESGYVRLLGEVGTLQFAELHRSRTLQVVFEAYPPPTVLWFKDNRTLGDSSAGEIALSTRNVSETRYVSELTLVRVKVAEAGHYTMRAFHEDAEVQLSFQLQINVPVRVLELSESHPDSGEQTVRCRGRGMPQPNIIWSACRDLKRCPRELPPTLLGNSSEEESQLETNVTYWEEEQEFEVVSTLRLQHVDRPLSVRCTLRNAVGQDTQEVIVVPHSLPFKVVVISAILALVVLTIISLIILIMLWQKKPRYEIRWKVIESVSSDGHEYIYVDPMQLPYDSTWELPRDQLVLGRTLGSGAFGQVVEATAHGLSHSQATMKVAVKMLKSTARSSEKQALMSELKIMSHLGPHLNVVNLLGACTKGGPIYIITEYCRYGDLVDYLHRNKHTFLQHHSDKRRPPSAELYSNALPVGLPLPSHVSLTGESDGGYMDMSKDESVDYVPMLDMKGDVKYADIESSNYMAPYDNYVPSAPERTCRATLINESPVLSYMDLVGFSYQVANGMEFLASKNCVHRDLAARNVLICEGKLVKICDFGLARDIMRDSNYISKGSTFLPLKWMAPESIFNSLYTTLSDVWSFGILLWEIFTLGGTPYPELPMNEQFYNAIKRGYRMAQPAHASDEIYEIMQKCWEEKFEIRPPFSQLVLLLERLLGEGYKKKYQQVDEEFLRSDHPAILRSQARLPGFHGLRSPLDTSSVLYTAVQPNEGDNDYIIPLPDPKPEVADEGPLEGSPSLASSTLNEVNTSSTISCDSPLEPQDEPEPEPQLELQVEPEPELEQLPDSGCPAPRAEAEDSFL

| SMILES | IC50 (MCF-7) [µM] | IC50 (Bel-7402) [µM] | IC50 (human PDGFRβ; [2]) [µM] | IC50 (HCT-8) [µM] | fold induction at 10 µM (Class I HDAC; 10µM, HeLa cells, 24 hours) | IC50 (A-498) [µM] | % inhibition of total HDAC enzyme activity at 30µM (total HDAC enzyme) [%] | IC50 (A549) [µM] | IC50 (HUVEC cells) [µM] | other results |
| --- | --- | --- | --- | --- | --- | --- | --- | --- | --- | --- |
| COc1ccc2c(Oc3ccc4c(C(=O)Nc5ccc(F)cc5N)cccc4c3)ccnc2c1 [Compound 32, N-(2-amino-4-fluorophenyl)-6-(7-methoxyquinolin-4-yloxy)-1-naphthamide] | 15.9 | 17.3 | 0.02 | 6.6 | 1.8 | 7.5 | 21.7 | 8.3 | 0.002 | – |
| COc1cc2nccc(Oc3ccc4c(C(=O)Nc5ccccc5N)cccc4c3)c2cc1OC [Compound 35, N-(2-aminophenyl)-6-(6,7-dimethoxyquinolin-4-yloxy)-1-naphthamide] | 13.3 | 19.5 | 0.005 | 8.9 | 1.2 | 9.1 | 19.3 | 7.7 | 0.001 | – |
| COc1cc2nccc(Oc3ccc4c(C(=O)Nc5ccc(F)cc5N)cccc4c3)c2cc1OC [Compound 36, N-(2-amino-4-fluorophenyl)-6-(6,7-dimethoxyquinolin-4-yloxy)-1-naphthamide] | 8.9 | 12.1 | 0.003 | 4.1 | 1.2 | 4.2 | 14.4 | 7.4 | 0.002 | – |
| COc1cc2nccc(Oc3ccc4c(C(=O)NCc5ccc(C(=O)Nc6ccccc6N)cc5)cccc4c3)c2cc1OC [Compound 37, N-(4-((2-aminophenyl)carbamoyl)benzyl)-6-(6,7-dimethoxyquinolin-4-yloxy)-1-naphthamide] | 30 | 30 | 0.159 | 30 | 3 | 30 | 35.9 | 30 | 0.004 | Tumor weight (human HCT-8 colon cancer; [3]): 3.89 ± 1.19 g; Body weight (g) end (human HCT-8 colon cancer; [3]): 23.6 ± 2.2 g; Body weight (g) start (human HCT-8 colon cancer; [3]): 20.6 ± 0.8 g; TGI (%) (human HCT-8 colon cancer; [3]): 36.5%; Tumor weight (human HCT-8 colon cancer; [4]): 3.36 ± 0.80 g; Body weight (g) end (human HCT-8 colon cancer; [4]): 24.1 ± 2.1 g; Body weight (g) start (human HCT-8 colon cancer; [4]): 20.8 ± 0.8 g; TGI (%) (human HCT-8 colon cancer; [4]): 45.1%; Tumor weight [1, 5]: 1.45 ± 0.58 g; Body weight (g) end [1, 5]: 25.3 ± 0.9 g; Body weight (g) start [1, 5]: 20.7 ± 1.2 g; TGI (%) [1, 5]: 35.6%; Tumor weight [1, 6]: 1.28 ± 0.51 g; Body weight (g) end [1, 6]: 24.3 ± 1.1 g; Body weight (g) start [1, 6]: 21.4 ± 0.6 g; TGI (%) [1, 6]: 43.3% |
| COc1cc2nccc(Oc3ccc4c(C(=O)NCc5ccc(C(=O)Nc6ccccc6N)cn5)cccc4c3)c2cc1OC [Compound 38] | 9.4 | 30 | – | 8 | – | 6.9 | 39.3 | 30 | 0.025 | IC50 (human PDGFRβ; read-out: Gl50 nM (PDGF ligand-dependent cell proliferation); PDGFRβ NIH-3T3 cells, PDGF BB (50ng/ml), 72 hours, serum-free medium): 0.074 µM; fold induction at 10 µM (Class I HDAC; HeLa, 24 h): 3.1 |

From patent EP2439195B1, “NAPHTHALENE CARBOXAMIDE DERIVATIVES AS INHIBITORS OF PROTEIN KINASE AND HISTONE DEACETYLASE, PREPARATION METHODS AND USES THEREOF” (Shenzhen Chipscreen Biosciences, Ltd., priority 2009, dated 2010)
